How the values were obtained:
[1] = system: V79 (Chinese hamster lung) cells
Experimental: (§1) Cytotoxicity was assessed on the mammalian cell lines HepG2-A16 (human hepatoma) and V79 (Chinese hamster lung), using a MTT based assay, as previously described. […] V79 and HepG2 cell lines were incubated for 24 and 48 h, respectively (media changed at 24 h intervals). Absorbance was read at 570 nm on a multi-mode microplate reader (Triad, Dynex Technologies), to produce a log dose-dependence curve. The LD50 value for each compound was estimated by non-linear interpolation of the dose-dependence curve (GraphPad Software).

[2] = system: HepG2-A16 (human hepatoma) cells
Experimental: as §1

[3] = system: P. falciparum IPC4912 (artemisinin-resistant, K13 I543T); assay: SYBR Green I assay, IC50, strain IPC4912; type: cell-based, Plasmodium falciparum; conditions: Plasmodium falciparum, read-out: P. falciparum IC50 ± SD, IPC4912
Experimental: Staging and parasitaemia were determined by light microscopy of Giemsa-stained thin blood smears. Anti-malarial activity was determined using the SYBR Green I assay, as previously described. Briefly, early ring stage parasites (> 80% of rings) were challenged with a 1:3 serial dilution of each compound, in concentrations ranging from 10,000–0.169 nM. Fluorescence intensity was measured with a multi-mode microplate reader (Triad, Dynex Technologies), with excitation and emission wavelengths of 485 and 535 nm, respectively, and analysed by nonlinear regression using GraphPad Prism to determine IC50 values.

[4] = system: P. falciparum 3D7 mature-stage parasites; conditions: typical value, strain not stated; cited from earlier work
[5] = system: P. falciparum IPC5202 (artemisinin-resistant, K13 R539T); assay: SYBR Green I assay, IC50, strain IPC5202; type: cell-based, Plasmodium falciparum; conditions: Plasmodium falciparum, read-out: P. falciparum IC50 ± SD, IPC5202, strain IPC5202
Experimental: Staging and parasitaemia were determined by light microscopy of Giemsa-stained thin blood smears. Anti-malarial activity was determined using the SYBR Green I assay, as previously described.

[6] = system: P. falciparum IPC5202 ring-stage parasites; assay: Ring-stage survival assay (RSA), IPC5202; type: cell-based, Plasmodium falciparum; conditions: Plasmodium falciparum, 6 h; read-out: Ring-stage survival rate (RSA), percentage of viable parasites, IPC5202
Experimental: Ring-stage survival assays (RSA) were carried out as described in [21], with modifications. Parasite cultures were synchronized once, with 5% sorbitol, and in the next reinvasion cycle, twice, with a 6 h interval. […] Then, plates were centrifuged and supernatant replaced by drug-free culture media. After additional incubation during 66 h for ring-stage, and 42 h for mature-stage, susceptibility was assessed microscopically on Giemsa-stained thin blood smears by estimating the percentage of viable parasites that developed into a second generation of rings or trophozoites.

[7] = system: P. falciparum Dd2 (chloroquine-resistant, mefloquine-resistant); parameters: method as in Lobo et al, 2016; conditions: ref Lobo et al, 2016, cited from earlier work
[8] = system: P. falciparum 3D7 (chloroquine and mefloquine sensitive); parameters: method as in Lobo et al, 2016; conditions: strain 3D7; ref Lobo et al, 2016; read-out: P. falciparum IC50 ± SD, 3D7; cited from earlier work

Row | Compound | LD50 V79 ([1]; Chinese hamster, 24 h) [mM] | LD50 HepG2 ([2]; human, 48 h) [mM] | IC50 [3] [nM] | viable mature-stage parasites allowed [4] [%] | IC50 [5] [nM] | viability at 0.7 µM [6] [%] | Resistance Index RIa = IC50 (Dd2)/IC50 (3D7) ([7]; Dd2 vs 3D7) | IC50 ([7]; strain Dd2, read-out: P. falciparum IC50 ± SD, Dd2) [nM] | Selectivity index LD50 (V79)/IC50 (3D7) ([1]; V79 vs 3D7) | Selectivity index LD50 (V79)/IC50 (Dd2) ([1]; V79 vs Dd2) | Selectivity index LD50 (HepG2)/IC50 (3D7) ([2]; HepG2 vs 3D7) | Selectivity index LD50 (HepG2)/IC50 (Dd2) ([2]; HepG2 vs Dd2) | IC50 [8] [nM]
1 | C[C@H]1[C@@H](O)O[C@@H]2O[C@@]3(C)CC[C@H]4[C@H](C)CC[C@@H]1[C@@]24OO3 [DHA, dihydroartemisinin, reference compound] | > 1 | 1.0 | 3.7 ± 2 | ~1 | 6.2 ± 1.6 | ≤ 25 |  |  |  |  |  |  | 
2 | O=C1CCC2(CC1)OOC1(O2)C2CC3CC(C2)CC1C3 (stereo not shown) [LC50] |  |  |  |  |  |  | 1.7 | 23.6 ± 8.4 | 71428.6 | 42372.8 | 71428.6 | 42372.8 | 14 ± 6.7

Source: paper PMC5883364 (Malaria Journal, 2018)
